Calls of active or inactive are those of the source. The rule behind the calls is not given here. Peptide text beside a SMILES is read from it. * marks the point of attachment. Doxorubicin(3'-N) = COc1cccc2c1C(=O)c1c(O)c3c(c(O)c1C2=O)C[C@@](O)(C(=O)CO)C[C@@H]3O[C@H]1C[C@H](N*)[C@H](O)[C@H](C)O1; Morpholinoacetyl = O=C(CN1CCOCC1)*
Tests used:
[1] = test system: 20S proteasome; assay: Prodrug release in tris HCL buffer assessed as human 20S immunoproteasome-mediated hydrolysis by measuring Dox release measured upto 8 hrs by mass spectrometry analysis; type: ADME, protein-complex assay
[2] = test system: 20S proteasome; assay: Prodrug release in tris HCL buffer at pH 7.4 assessed as human 20S immunoproteasome mediated hydrolysis by measuring Dox release at 10 uM incubated for 4 hrs in presence of 37.5 to 75 nM of PA28alpha/beta activated complex by mass spectrometry analysis; type: ADME, protein-complex assay; conditions: pH 7.4, 4 h
[3] = test system: 20S proteasome; assay: Prodrug release in tris HCL buffer at pH 7.4 assessed as human 20S immunoproteasome mediated hydrolysis by measuring Dox release at 10 uM incubated for 90 mins in presence of PA28alpha/beta activated complex by fluorescence based analysis; type: ADME, protein-complex assay; conditions: pH 7.4, 1.5 h
[4] = test system: 20S proteasome; assay: Prodrug release in tris HCL buffer at pH 7.4 assessed as human 20S immunoproteasome mediated hydrolysis by measuring Dox release at 10 uM incubated for 4 hrs in presence of PA28alpha/beta activated complex by mass spectrometry analysis; type: ADME, protein-complex assay; conditions: pH 7.4, 4 h
[5] = test system: Ramos; assay: Cytotoxicity against human Ramos cells assessed as cell viability incubated for 24 hrs by celltiter-glo assay; type: functional, cell-based
[6] = molecular target: T1, von Hippel-Lindau disease tumor suppressor/Bromodomain-containing protein 4 (Homo sapiens) (UniProt O60885+P40337); assay: PROTAC activity at BRD4/VHL in human Ramos cells expressing iCP assessed as induction of BRD4 degradation at 1 nM compound administered as prodrug-PROTAC incubated for 18 hrs by immunoblotting analysis; type: cell-based
T1 sequence (P40337 whole entry, looked up, other chains not shown): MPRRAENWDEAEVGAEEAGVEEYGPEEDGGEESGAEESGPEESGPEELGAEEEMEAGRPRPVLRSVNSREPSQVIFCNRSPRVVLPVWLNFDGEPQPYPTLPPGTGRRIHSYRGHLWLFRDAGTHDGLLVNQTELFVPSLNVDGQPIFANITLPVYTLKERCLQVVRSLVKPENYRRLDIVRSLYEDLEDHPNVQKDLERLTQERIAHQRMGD

[7] = Cytotoxicity against human AC16 [Human hybrid] cells assessed as cell viability incubated for 72 hrs by celltiter-glo assay; type: toxicity, cell-based
[8] = Prodrug release in tris HCL buffer assessed as human 20S proteasome core particle-mediated hydrolysis by measuring Dox release measured for 4 hrs by mass spectrometry analysis; type: ADME
[9] = Prodrug release in tris HCL buffer assessed as human 20S proteasome core particle-mediated hydrolysis by measuring Dox release measured for 4 hrs in presence of PA28alpha/beta activated complex by mass spectrometry analysis; type: ADME
[10] = Cytotoxicity against human AC16 [Human hybrid] cells assessed as cell viability at 10 uM incubated for 72 hrs by celltiter-glo assay relative to control; type: toxicity, cell-based; conditions: read-out: Activity
[11] = Stability in human serum incubated for 1 hr by mass spectrometry analysis; type: ADME, cell-free
[12] = Cytotoxicity against human AC16 [Human hybrid] cells assessed as cell viability at 20 uM incubated for 72 hrs by celltiter-glo assay relative to control; type: toxicity, cell-based; conditions: read-out: Activity
[13] = test system: Ramos; assay: Cytotoxicity against human Ramos cells assessed as cell viability incubated for 72 hrs by celltiter-glo assay; type: functional, cell-based
[14] = test system: Raji; assay: Cytotoxicity against human Raji cells assessed as cell viability at 0.0001 to 100 uM incubated for 72 hrs by celltiter-glo assay; type: functional, cell-based; conditions: dose 0.0001-100 µM
[15] = test system: MM.1R; assay: Cytotoxicity against human MM1.R cells assessed as cell viability at 0.0001 to 100 uM incubated for 72 hrs by celltiter-glo assay; type: functional, cell-based; conditions: dose 0.0001-100 µM
[16] = molecular target: T1, von Hippel-Lindau disease tumor suppressor/Bromodomain-containing protein 4 (Homo sapiens); assay: PROTAC activity at BRD4/VHL in human Ramos cells expressing iCP assessed as induction of BRD4 degradation at 100 nM compound administered as prodrug-PROTAC incubated for 18 hrs in presence of ONX-0914 by immunoblotting analysis; type: cell-based
[17] = Cytotoxicity against human AC16 [Human hybrid] cells expressing iCP assessed as cell viability incubated for 24 hrs by celltiter-glo assay; type: toxicity, cell-based

Question: For `COc1cccc2c1C(=O)c1c(O)c3c(c(O)c1C2=O)C[C@@](O)(C(=O)CO)C[C@@H]3O[C@H]1C[C@H](NC(=O)[C@H](C)NC(=O)[C@H](C)NC(=O)[C@H](C)NC(=O)[C@H](C)NC(C)=O)[C@H](O)[C@H](C)O1` (Ac-AAAA-{Doxorubicin(3'-N)}), which Drug metabolism [1] is on record?
Answer: metabolite_detected

Question: And the Drug metabolism [2]?
Answer: metabolite_notdetected

Question: Which Drug metabolism [1] does the source give for `COc1cccc2c1C(=O)c1c(O)c3c(c(O)c1C2=O)C[C@@](O)(C(=O)CO)C[C@@H]3O[C@H]1C[C@H](NC(=O)[C@H](Cc2c[nH]c3ccccc23)NC(=O)[C@H](CCSC)NC(=O)[C@@H](NC(=O)[C@H](C)NC(C)=O)[C@@H](C)O)[C@H](O)[C@H](C)O1` (Ac-ATMW-{Doxorubicin(3'-N)}) here?
Answer: metabolite_detected

Question: What about the Drug metabolism [3] of the same molecule?
Answer: metabolite_detected

Question: And the Drug metabolism [4]?
Answer: metabolite_detected

Question: What does the source list for `Cc1ncsc1-c1ccc([C@H](C)NC(=O)[C@@H]2C[C@@H](O)CN2C(=O)[C@@H](NC(=O)COCCCOCCNC(=O)C[C@@H]2N=C(c3ccc(Cl)cc3)c3c(sc(C)c3C)-n3c(C)nnc32)C(C)(C)C)cc1`?
Answer: IC50 [5]: 10 nM; Activity [6]: Active

Question: For `COc1cccc2c1C(=O)c1c(O)c3c(c(O)c1C2=O)C[C@@](O)(C(=O)CO)C[C@@H]3O[C@H]1C[C@H](N)[C@H](O)[C@H](C)O1` [DOXORUBICIN], which IC50 at 72 h [7] is on record?
Answer: 233 nM

Question: Which Drug metabolism [1] does the source give for `COc1cccc2c1C(=O)c1c(O)c3c(c(O)c1C2=O)C[C@@](O)(C(=O)CO)C[C@@H]3O[C@H]1C[C@H](NC(=O)[C@H](Cc2ccc(O)cc2)NC(=O)[C@@H](NC(=O)[C@H](CC(C)C)NC(=O)[C@H](CC(C)C)NC(C)=O)C(C)C)[C@H](O)[C@H](C)O1` (Ac-LLVY-{Doxorubicin(3'-N)}) here?
Answer: metabolite_detected

Question: What about the Drug metabolism [2] of the same molecule?
Answer: metabolite_notdetected

Question: And the Drug metabolism [8]?
Answer: metabolite_notdetected

Question: And the Drug metabolism [9]?
Answer: metabolite_detected

Question: Which viability at 72 h, 10 µM [10] does the source give for `COc1cccc2c1C(=O)c1c(O)c3c(c(O)c1C2=O)C[C@@](O)(C(=O)CO)C[C@@H]3O[C@H]1C[C@H](NC(C)=O)[C@H](O)[C@H](C)O1` here?
Answer: > 90%

Question: Which results are given for `COc1cccc2c1C(=O)c1c(O)c3c(c(O)c1C2=O)C[C@@](O)(C(=O)CO)C[C@@H]3O[C@H]1C[C@H](NC(=O)[C@H](Cc2c[nH]c3ccccc23)NC(=O)[C@H](CCSC)NC(=O)[C@@H](NC(=O)[C@H](C)NC(=O)CN2CCOCC2)[C@@H](C)O)[C@H](O)[C@H](C)O1` (Morpholinoacetyl-ATMW-{Doxorubicin(3'-N)})?
Answer: Stability [11]: Stable; viability at 72 h, 20 µM [12]: > 80%; IC50 [13]: 5500 nM; Activity [14]: Active; Activity [15]: Active

Question: What does the source list for `CSCC[C@H](NC(=O)[C@@H](NC(=O)[C@H](C)NC(=O)CN1CCOCC1)[C@@H](C)O)C(=O)N[C@@H](Cc1c[nH]c2ccccc12)C(=O)Nc1ccc(COC(=O)O[C@H]2C[C@H](C(=O)N[C@@H](C)c3ccc(-c4scnc4C)cc3)N(C(=O)[C@@H](NC(=O)COCCCOCCNC(=O)C[C@@H]3N=C(c4ccc(Cl)cc4)c4c(sc(C)c4C)-n4c(C)nnc43)C(C)(C)C)C2)cc1`?
Answer: IC50 [5]: 10 nM; Activity [6]: Active; Activity [16]: inactive; Activity [17]: Toxic

Reference: ChEMBL document CHEMBL6115038, “Immunoproteasome as a Target for Prodrugs” (J Med Chem, 2025)
